Reference: patent publication US20250073209A1, “COVALENT TARGETING OF RhoA FOR CANCER THERAPY” (The University of Hong Kong, priority 2023, published 2025)

How the values were obtained:
[1] = molecular target: Rac1 (Homo sapiens, UniProt P63000); assay: Gel-based competitive ABPP, second screening on Rac1; format: binding
Protocol: Recombinant human RhoA (0.1 μg; ab101594) was pretreated with cysteine-reactive compounds or DMSO for 1 hour at room temperature, followed by incubation with iodoacetamide-rhodamine (IA-Rh; 1 μM) for 1 hour at room temperature. The reaction was then quenched by boiling in sampling buffer. Samples were subjected to SDS-PAGE to separate proteins bands. In-gel fluorescence intensity was measured with a Chemidoc using setting for Rhodamine. Gel was subsequently stained with silver stain (Pierce) for visualization of protein content and covalent modification. Band intensity was quantified using ImageJ.
CL16 was identified for its strong and specific binding with RhoA in covalent ligand screening experiment by ABPP. ABPP is known as a powerful platform for covalent ligand screening, particularly for the identification of lead compounds targeting new hotspots for therapy. Competitive gel-based activity-based protein profiling (ABPP) experiment was performed on purified RhoA protein for screening its interactions with a library of cysteine-reactive covalent ligands with acrylamide or chloroacetamide warheads. RhoA protein for the first screening and on Rac1 and Cdc42 for the second screening to identify lead compounds with specific binding onto RhoA Cys16. […] The reaction mixture was then resolved by SDS-PAGE and in-gel fluorescence was imaged (FIG. 1A). […]

[2] = system: HT29 cells; assay: Wound healing assay; format: cell-based, human
Protocol: For wound healing assay, HT29 cells were seeded in 90% confluency, a wound was scratched using a P-20 tip the next day. Cell debris was washed with PBS then aspirated. Then, complete DMEM medium with CL16 or Rhosin with corresponding concentration was added to the cells. Wound closure was recorded every 24 hours under light microscope with 10× objective and measurement of wound area was made by ImageJ.
As discussed above, overexpression/hyperactivity of RhoA associated with poor prognosis and aggressive behaviors of CRCs (FIG. 8A). Thus, the anti-cancer and anti-metastatic properties of CL16 in CRCs were explored. First, it was confirmed that genetic knockdown of RhoA by siRNA slowed down colony formation and migration of CRCs by using staining (data not shown) and wound healing assay (FIG. 4A). MTT assay was used to determine cell viability of CRCs and normal colon fibroblast CCD-18Co cells treated with CL16 for 48 h (n=3 different biological replicates/group). A much lower expression level of RhoA in normal colon fibroblast CCD-18Co cells was also determined, as compared to CRCs, by western blotting (data not shown). […] HT29 cells were transfected with siRNA (5 μM) using Dharmafect1 for 48 hours, and protein expressions were then investigated by immunoblotting.

[3] = molecular target: T1, FLAG-RhoA (Homo sapiens, UniProt P61586); assay: CL16-alkyne labeling of FLAG-RhoA in HCT116 cells (anti-FLAG IP, CuAAC, in-gel fluorescence); format: cell-based; conditions: pre-incubation 2 h
T1 construct: expressed in transfected cells; host or cells: HCT116
Protocol: HCT116 cells transiently expressing FLAG-RhoA were pre-treated with solvent vehicle or CL16 for 2 h, followed by the incubation with CL16-alkyne in complete medium for another 2 h. The cells were then lysed and subjected to immunoprecipitation by anti-FLAG beads. The enriched proteins were reacted with rhodamine azide through copper-catalyzed azide-alkyne cycloaddition (CuAAC), boiled with sampling buffer and separated by SDS-PAGE. The protein bands were then visualized by their in-gel fluorescence or blotted for RhoA. […] HCT116 cells were pre-treated with solvent vehicle or CL16 for 2 h, followed by the incubation with CL16-alkyne in complete medium for another 2 h. The cells were then lysed, reacted with rhodamine azide through CuAAC, boiled with sampling buffer, separated by SDS-PAGE and imaged. […]
To identify protein target and any off-targets of CL16 in CRCs, a molecular probe of CL16, CL16-alkyne (FIG. 6A), was synthesized. […] The protein bands were then visualized by their in-gel fluorescence or blotted for RhoA. […] The probe-labeled proteins were installed with rhodamine through CuAAC, and visualized by their in-gel fluorescence after SDS-PAGE. A protein band with strong fluorescence was found at −22 kDa in the sample incubated with CL16-alkyne only, in line with the molecular weight of RhoA (FIG. 6C).

T1 sequence (P61586 whole entry): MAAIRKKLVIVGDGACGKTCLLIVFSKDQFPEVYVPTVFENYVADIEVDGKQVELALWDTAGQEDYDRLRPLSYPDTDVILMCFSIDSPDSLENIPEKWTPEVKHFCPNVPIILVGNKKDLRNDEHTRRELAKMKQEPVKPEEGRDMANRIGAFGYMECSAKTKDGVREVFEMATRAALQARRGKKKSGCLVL

binding with Rac1 [1]: no observable binding | competition with CL16-alkyne labeling of FLAG-RhoA [3]: competed with the alkyne probe labeling
SMILES: O=C(CCl)N1N=C(c2cc3ccccc3o2)CC1c1ccco1 (stereo not drawn) [CL16]
cell migration [2]: good efficacy in reducing HT29 cell migration and invasion
